Test results published in patent US9663464B2, “Carbazole derivatives acting on 5-HT7 receptor” (KOREA INSTITUTE OF SCIENCE AND TECHNOLOGY, priority 2015, dated 2017).
pKi: −log10 of the molar value. Where a name gives a salt, the structure may show the parent alone.

Columns and labels:
5-HT2C = target: T1, 5-HT2C (Homo sapiens, UniProt P28335); assay: 5-HT2C receptor inhibition/binding (Tables 1-3)
T1 sequence (P28335 33-458): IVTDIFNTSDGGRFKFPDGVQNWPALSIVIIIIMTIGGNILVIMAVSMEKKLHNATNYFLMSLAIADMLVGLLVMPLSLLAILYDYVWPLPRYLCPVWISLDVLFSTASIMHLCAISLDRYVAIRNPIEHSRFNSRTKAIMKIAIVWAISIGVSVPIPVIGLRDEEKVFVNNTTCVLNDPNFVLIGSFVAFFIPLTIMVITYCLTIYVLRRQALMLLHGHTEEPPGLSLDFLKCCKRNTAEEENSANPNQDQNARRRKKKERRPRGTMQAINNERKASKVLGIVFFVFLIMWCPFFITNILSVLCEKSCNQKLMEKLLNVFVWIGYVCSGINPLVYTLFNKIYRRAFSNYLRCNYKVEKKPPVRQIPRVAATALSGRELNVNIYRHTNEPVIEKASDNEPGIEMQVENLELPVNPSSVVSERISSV

[1] = target: T2, human gene recombinant 5-HT7 receptor expressed in CHO cells (Homo sapiens, UniProt P34969); assay: Binding affinity for the 5-HT7 serotonin receptor ([3H]LSD radioligand)
T2 construct: expressed in transfected cells; host or cells: CHO cells (membrane preparation)
Procedure: In this example, the human gene recombinant 5-HT7 receptor expressed in CHO cells was used. 1 nM [^3H]LSD, 5-HT7 receptor membrane (15 μg/well), a test drug, 10 mM MgCl2, 50 mM Tris-HCl buffer (pH 7.4) containing 0.1 mM EDTA, etc. were added to a vessel until the final volume reached 0.25 ml. The test drug was used at various concentrations. The mixture was cultured at 25° C. for 90 min. The culture was rapidly filtered through a Whatman GF/C glass fiber filter, which had been previously wetted with 0.3% polyethyleneimine using a Brandel harvester, to quench the reaction. The reaction mixture was washed with cold 50 mM Tris-HCl buffer. The filter was covered with MeltiLex, sealed in a sample bag, and dried in an oven. Counting was performed using MicroBeta (Wallac) and nonspecific binding was measured in the presence of […]. The K value of the test drug was obtained from nonlinear regression analysis (GraphPad Prism Program, San Diego, USA) of isotherms obtained by repeatedly performing the experiment on the drug at 10-11 stage concentrations in two test tubes (each twice).
The % inhibition values of the inventive compounds having different Y structures at a concentration of 10 μM against the 5-HT7 serotonin receptor were measured. Further, the binding affinity (Ki) values of the inventive compounds having different Y structures at a concentration of 10 μM for the 5-HT7 serotonin receptor were measured.

5-HT1E = 5-HT1E (Homo sapiens, UniProt P28566); assay: 5-HT1E receptor inhibition (Table 1); assay type: binding
5-HT1A = target: T3, 5-HT1A (Homo sapiens, UniProt P08908); assay: 5-HT1A receptor inhibition (Table 3); assay type: binding
T3 sequence (P08908 1-422): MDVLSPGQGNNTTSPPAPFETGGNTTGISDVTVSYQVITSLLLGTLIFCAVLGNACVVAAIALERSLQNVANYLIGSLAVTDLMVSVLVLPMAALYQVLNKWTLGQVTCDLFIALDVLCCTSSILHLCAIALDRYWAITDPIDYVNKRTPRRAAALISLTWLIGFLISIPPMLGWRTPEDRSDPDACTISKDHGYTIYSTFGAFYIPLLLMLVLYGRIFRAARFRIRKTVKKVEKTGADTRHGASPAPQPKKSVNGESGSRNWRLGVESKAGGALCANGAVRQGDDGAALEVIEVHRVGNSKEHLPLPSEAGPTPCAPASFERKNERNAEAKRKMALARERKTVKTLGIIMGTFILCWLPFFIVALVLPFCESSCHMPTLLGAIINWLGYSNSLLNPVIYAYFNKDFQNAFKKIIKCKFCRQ

5-HT6 = 5-HT6 (Homo sapiens, UniProt P50406); assay: 5-HT6 receptor inhibition/binding (Tables 2-3); conditions: 10 μM
5-HT6, sequence (P50406 whole entry, species assumed): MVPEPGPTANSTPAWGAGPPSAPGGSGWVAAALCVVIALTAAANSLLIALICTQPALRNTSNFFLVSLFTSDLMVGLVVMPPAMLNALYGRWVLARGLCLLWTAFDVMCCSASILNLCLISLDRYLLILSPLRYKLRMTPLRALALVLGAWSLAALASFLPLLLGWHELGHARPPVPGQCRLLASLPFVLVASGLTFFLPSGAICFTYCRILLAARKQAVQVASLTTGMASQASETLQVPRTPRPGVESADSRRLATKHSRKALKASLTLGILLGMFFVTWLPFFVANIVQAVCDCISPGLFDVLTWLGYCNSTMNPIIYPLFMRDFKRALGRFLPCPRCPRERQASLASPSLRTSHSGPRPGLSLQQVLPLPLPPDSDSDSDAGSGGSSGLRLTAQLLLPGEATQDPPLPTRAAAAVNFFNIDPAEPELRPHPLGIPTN

T2 sequence (P34969 whole entry): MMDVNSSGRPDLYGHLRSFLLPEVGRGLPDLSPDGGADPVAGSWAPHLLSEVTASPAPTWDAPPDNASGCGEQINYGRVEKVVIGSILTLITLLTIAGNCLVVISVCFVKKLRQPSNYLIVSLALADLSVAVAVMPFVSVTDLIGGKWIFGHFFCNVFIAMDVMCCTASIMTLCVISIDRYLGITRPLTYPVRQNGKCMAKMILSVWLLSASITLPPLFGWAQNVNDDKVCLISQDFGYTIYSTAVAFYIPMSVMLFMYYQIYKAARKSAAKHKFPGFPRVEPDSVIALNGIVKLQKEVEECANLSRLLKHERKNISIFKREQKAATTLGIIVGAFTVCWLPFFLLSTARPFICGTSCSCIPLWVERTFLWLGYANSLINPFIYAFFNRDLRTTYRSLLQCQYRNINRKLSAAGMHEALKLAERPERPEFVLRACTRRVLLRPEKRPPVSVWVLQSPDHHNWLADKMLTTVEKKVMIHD
5-HT1E, sequence (P28566 whole entry, species assumed): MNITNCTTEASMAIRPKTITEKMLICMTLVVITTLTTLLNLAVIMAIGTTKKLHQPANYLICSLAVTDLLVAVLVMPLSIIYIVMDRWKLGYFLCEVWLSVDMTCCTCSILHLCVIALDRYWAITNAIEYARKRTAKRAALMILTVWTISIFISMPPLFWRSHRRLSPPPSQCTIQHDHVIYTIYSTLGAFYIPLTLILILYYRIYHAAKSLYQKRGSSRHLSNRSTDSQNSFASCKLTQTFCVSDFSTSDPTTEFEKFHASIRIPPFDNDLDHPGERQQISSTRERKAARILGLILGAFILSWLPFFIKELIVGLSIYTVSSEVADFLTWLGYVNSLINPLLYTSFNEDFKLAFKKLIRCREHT

Structure (SMILES)	pKi (5-HT2C)	inhibition at 10 µM (5-HT2C) [%]	pKi [1]	inhibition at 10 µM [1] [%]	inhibition at 10 µM (5-HT1E) [%]	inhibition at 10 µM (5-HT1A) [%]	inhibition at 10 µM (5-HT6) [%]
CCCCN(C)CCCCCC(=O)n1c2ccccc2c2ccccc21 [Example 2.1, 6-(Butyl(methyl)amino)-1-(9H-carbazol-9-yl)hexan-1-one hydrochloride]	6.68	87.4	6.17	82.8	51.3	–	–
CN(CCCCCC(=O)n1c2ccccc2c2ccccc21)Cc1ccccc1 [Example 2.2, 6-(Benzyl)methyl)amino)-1-(9H-carbazol-9-yl)hexan-1-one hydrochloride]	5.88	54.6	–	92	10.2	–	–
O=C(CCCCCN1CCCC1)n1c2ccccc2c2ccccc21 [Example 2.3, 1-(9H-carbazol-9-yl)-6-(pyrrolidin-1-yl)hexan-1-one hydrochloride]	6.12	76.7	5.98	74	13.9	–	–
CC1CCCN(CCCCCC(=O)n2c3ccccc3c3ccccc32)C1 (centres unmarked) [Example 2.5, 1-(9H-carbazol-9-yl)-6-(3-methylpiperidin-1-yl)hexan-1-one hydrochloride]	6.31	86.6	6.26	84.6	-15.3	–	–
CC1CC(C)CN(CCCCCC(=O)n2c3ccccc3c3ccccc32)C1 (centres unmarked) [Example 2.6, 1-(9H-carbazol-9-yl)-6-(3,5-dimethylpiperidin-1-yl)hexan-1-one hydrochloride]	6.34	80.6	6.08	77.2	-21.9	–	–
O=C(CCCCCN1CCCCCC1)n1c2ccccc2c2ccccc21 [Example 2.7, 6-(Azepan-1-yl)-1-(9H-carbazol-9-yl)hexan-1-one hydrochloride]	6.39	77.2	6.21	86	1.8	–	–
O=C(CCCCCN1CCN(Cc2ccccc2)CC1)n1c2ccccc2c2ccccc21 [Example 2.13, 6-(4-Benzylpiperazin-1-yl)-1-(9H-carbazol-9-yl)hexan-1-one hydrochloride]	–	72.3	6.90	94.8	–	76.8	57.9
COc1ccccc1N1CCN(CCCCCC(=O)n2c3ccccc3c3ccccc32)CC1 [Example 2.16, 1-(9H-carbazol-9-yl)-6-(4-(2-methoxyphenyl)piperazin-1-yl)hexan-1-one]	–	55.8	7.13	102	–	108	30.7
CCCCN(C)CCCCC(=O)n1c2ccccc2c2ccccc21 [Example 2.17, 5-(Butyl(methyl)amino)-1-(9H-carbazol-9-yl)pentan-1-one hydrochloride]	–	–	5.89	50	73.9	–	–
CN(CCCCC(=O)n1c2ccccc2c2ccccc21)Cc1ccccc1 [Example 2.18, 5-(Benzyl(methyl)amino)-1-(9H-carbazol-9-yl)pentan-1-one hydrochloride]	–	32.6	6.29	83.1	-22.5	–	–
O=C(CCCCN1CCCC1)n1c2ccccc2c2ccccc21 [Example 2.19, 1-(9H-carbazol-9-yl)-5-(pyrrolidin-1-yl)pentan-1-one hydrochloride]	–	45	5.67	57.4	16.3	–	–
CC1CCN(CCCCC(=O)n2c3ccccc3c3ccccc32)CC1 [Example 2.20, 1-(9H-carbazol-9-yl)-5-(4-methylpiperidin-1-yl)pentan-1-one hydrochloride]	–	44.4	6.23	80.2	-19.3	–	–
CC1CCCN(CCCCC(=O)n2c3ccccc3c3ccccc32)C1 (centres unmarked) [Example 2.21, 1-(9H-carbazol-9-yl)-5-(3-methylpiperidin-1-yl)pentan-1-one hydrochloride]	–	50	6.05	69.4	-6	–	–
CC1CC(C)CN(CCCCC(=O)n2c3ccccc3c3ccccc32)C1 (centres unmarked) [Example 2.22, 1-(9H-carbazol-9-yl)-5-(3,5-dimethylpiperidin-1-yl)pentan-1-one hydrochloride]	6.07	52.1	5.85	67.6	-10.5	–	–
O=C(CCCCN1CCCCCC1)n1c2ccccc2c2ccccc21 [Example 2.23, 5-(Azepan-1-yl)-1-(9H-carbazol-9-yl)pentan-1-one hydrochloride]	5.96	55	6.02	77	-11.7	–	–
CC(=O)N1CCN(CCCCC(=O)n2c3ccccc3c3ccccc32)CC1 [Example 2.27, 5-(4-Acetylpiperazin-1-yl)-1-(9H-carbazol-9-yl)pentan-1-one hydrochloride]	–	6.6	5.97	64.6	–	25.4	13.8
O=C(CCCCN1CCN(Cc2ccccc2)CC1)n1c2ccccc2c2ccccc21 [Example 2.29, 5-(4-Benzylpiperazinyl)-1-(9H-carbazol-9-yl)pentan-1-one hydrochloride]	–	38	6.55	92	–	66.5	57.4
COc1ccccc1N1CCN(CCCC(=O)n2c3ccccc3c3ccccc32)CC1 [Example 2.34, 1-(9H-carbazol-9-yl)-4-(4-(2-methoxyphenyl)piperazin-1-yl)butan-1-one]	–	74.2	7.48	97.7	–	104	51.5
CN(CCCCCCn1c2ccccc2c2ccccc21)Cc1ccccc1 [Example 2.36, N-Benzyl-6-(9H-carbazol-9-yl)-N-methylhexane-1-amine]	–	–	5.70	64	-13.2	–	–
c1ccc2c(c1)c1ccccc1n2CCCCCCN1CCCC1 [Example 2.37, 9-(6-(Pyrrolidin-1-yl)hexyl)-9H-carbazole]	–	–	5.81	66.9	21.1	–	–
CC1CCN(CCCCCCn2c3ccccc3c3ccccc32)CC1 [Example 2.38, 9-(6-(4-Methylpiperidin-1-yl)hexyl)-9H-carbazole]	–	–	6.22	82.9	-9.4	–	–
CC1CCCN(CCCCCCn2c3ccccc3c3ccccc32)C1 (centres unmarked) [Example 2.39, 9-(6-(3-Methylpiperidin-1-yl)hexyl)-9H-carbazole]	–	–	6.04	75.6	1.5	–	–
CC1CC(C)CN(CCCCCCn2c3ccccc3c3ccccc32)C1 (centres unmarked) [Example 2.40, 9-(6-(3,5-Dimethylpiperidin-1-yl)hexyl)-9H-carbazole]	–	–	5.80	57.7	-7.3	–	–
c1ccc2c(c1)c1ccccc1n2CCCCCCN1CCCCCC1 [Example 2.41, 9-(6-(Azepan-1-yl)hexyl)-9H-carbazole]	–	–	6.02	71.3	2.7	–	–
